According to patent US4778796A, “ω-(3-pyridyl)alkenamide derivatives and anti-allergenic pharmaceutical compositions containing same” (Dainippon Pharmaceutical Co., Ltd., priority 1985, dated 1988):
Where two headings read alike, the source gives them in different places.

Tests used:
experimental asthma = assay: Inhibitory effect on experimental asthma in rats; format: in vivo, rat (male Wistar); conditions: Rattus norvegicus, po, 1 hour before antigen challenge
Protocol: (2) Inhibitory effect on experimental asthma in rats: This test was carried out by the method of Church and Miller [cf. Brit. […] Male Wistar rats (200-250 g) were sensitized by an intraperitoneal injection of 1 ml of a 0.01% egg albumin solution containing 1 mg of Al(OH)3. Two weeks later, the rats were anesthetized with 1.3 g/kg of urethane. The trachea and jugular vein were cannulated. Respiratory volume and velocity were measured by attaching one end of the tracheal cannula to respiratory volume meter connected to a carrier amplifier and an integrator. The rats were challenged by an intravenous injection of 4 mg/kg of egg ablumin 30 minutes after the anesthesia. Test compounds, dissolved or suspended in a 0.5% aqueous tragacanth solution, were administered orally 1 hour before the antigen challenge. Each group of 4 rats was used for each dose of the test compound. ED50 values were calculated from the best fit linear regression line of inhibitory rates of respiratory volume and velocity in each dose.

5-lipoxygenase = target: T1, 5-lipoxygenase (Cavia porcellus, UniProt A0A286X958); assay: Inhibitory effect on 5-lipoxygenase activity in guinea pig leukocytes; format: biochemical, guinea pig (male Hartley); conditions: read-out: 5-Lipoxygenase inhibit. activity, Inhibition
T1 construct: The cytosol fraction of peritoneal exudate cells from male Hartley guinea pigs (400-700 g) was used as 5-lipoxygenase; from tissue; host or cells: cytosol fraction of peritoneal exudate cells (leukocytes) of male Hartley guinea pigs
T1 sequence (A0A286X958 1-674): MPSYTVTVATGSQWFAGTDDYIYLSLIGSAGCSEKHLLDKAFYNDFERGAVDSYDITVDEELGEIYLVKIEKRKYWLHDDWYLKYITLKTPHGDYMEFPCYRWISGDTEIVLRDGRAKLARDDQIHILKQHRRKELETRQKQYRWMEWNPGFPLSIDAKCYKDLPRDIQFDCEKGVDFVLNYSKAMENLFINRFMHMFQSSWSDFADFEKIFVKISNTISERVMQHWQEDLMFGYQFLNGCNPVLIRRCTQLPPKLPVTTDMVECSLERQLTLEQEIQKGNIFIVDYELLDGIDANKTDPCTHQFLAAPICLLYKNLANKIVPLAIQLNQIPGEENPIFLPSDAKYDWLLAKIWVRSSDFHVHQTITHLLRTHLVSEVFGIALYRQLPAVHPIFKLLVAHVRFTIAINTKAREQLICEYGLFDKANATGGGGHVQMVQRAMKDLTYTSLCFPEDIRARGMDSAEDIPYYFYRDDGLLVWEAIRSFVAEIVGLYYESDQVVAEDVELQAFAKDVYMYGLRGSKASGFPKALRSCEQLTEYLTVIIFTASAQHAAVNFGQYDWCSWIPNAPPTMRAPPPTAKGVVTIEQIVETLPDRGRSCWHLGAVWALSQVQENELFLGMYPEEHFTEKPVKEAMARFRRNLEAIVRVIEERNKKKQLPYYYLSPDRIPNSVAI
Protocol: (1) Inhibitory effect on 5-lipoxygenase activity in guinea pig leukocytes:
This test was carried out by the method of Miyamoto and Obata (cf. "Perspectives in Prostaglandin Research," ed. by Y. Shiokawa et al., Excepta Medica, Amsterdam-Oxford-Princeton, 1983, p78) with minor modifications.
The cytosol fraction of peritoneal exudate cells from male Hartley guinea pigs (400-700 g) was used as 5-lipoxygenase. The standard reaction mixture contained 50 mM potassium phosphate buffer, 1 mM CaCl2, 1 mM glutathione, 1 mM adenosine triphosphoric acid, 10 μM indomethacin and the enzyme. The mixture was incubated for 5 minutes at 30° C. after addition of [1-^14 C]arachidonic acid (0.02 μCi). The reaction was terminated by addition of 0.6 ml of the cold organic solvents (diethyl ether/methanol/0.2M citric acid=30/4/1). The organic layer (300 μl) was applied onto a precoated silica gel 60F254 glass plate (E. Merck, West Germany). Radioactivity on the plate was monitored by a radiochromatogram scanner (Packard, U.S.A.). 5-Lipoxygenase activity was calculated according to the following equation. [formula]
The effects of the test compounds were expressed in terms of percent inhibition.

Cc1ccc(C=CC(=O)NCCCCN2CCN(C(c3ccccc3)c3ccccc3)CC2)cn1 [Example 2, N-[3-(6-methyl-3-pyridyl)acryloyl]-4-(4-diphenylmethyl-1-piperazinyl)butylamine]
ED50 (experimental asthma; respiratory velocity, read-out: ED50, respiratory velocity): 5.5 mg/kg
ED50 (experimental asthma; respiratory volume, read-out: ED50, respiratory volume): 14.4 mg/kg
inhibition at 30 µM (5-lipoxygenase; 3 × 10^-5 M): 87.2%
inhibition at 10 µM (5-lipoxygenase; 10^-5 M): 45.7%
